Results as given in PubChem BioAssay (NCI).
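Tested at 5 concentrations; 48 h exposure; 96-well plates; endpoints linearly interpolated, else capped at highest concentration. The concentration for 50% growth inhibition is given as GI50. Definition used: TGI = concentration required for complete inhibition of growth.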

Key:
Assay in all cases: inhibition of tumour cell growth, NCI panel, 48 h
[1] = test system: MALME-3M melanoma
[2] = test system: 786-0 renal
[3] = test system: SNB-75 CNS
[4] = test system: M19-MEL melanoma
[5] = test system: HOP-62 NSCLC
[6] = test system: OVCAR-3 ovarian
[7] = test system: KM20L2 colon
[8] = test system: MOLT-4 leukemia
[9] = test system: A549 NSCLC
[10] = test system: SR leukemia

Row | SMILES | TGI [1] | TGI [2] | TGI [3] | TGI [4] | TGI [5] | TGI [6] | TGI [7] | TGI [8] | TGI [9] | TGI [10] | GI50 [1] | GI50 [2] | GI50 [10] | GI50 [3] | GI50 [5] | GI50 [6] | GI50 [8] | GI50 [9]
1 | CCOC(=O)CN(Cn1cncn1)Cn1cncn1 | > 100 µM | > 100 µM | 91 µM | > 100 µM | > 100 µM | 51.8 µM | 51.7 µM | > 100 µM | > 100 µM |  |  |  |  |  |  |  |  | 
2 | Cc1ccc(Oc2ccccc2N)cc1 | > 100 µM | 86.8 µM | 60.6 µM |  | > 100 µM | 55 µM | 30.4 µM | > 100 µM | > 100 µM | > 100 µM |  |  |  |  |  |  |  | 
3 | COc1ccc(OC(C(=O)O)C(C)C)c2c1CCCC2=O (configuration not stated) | > 100 µM | > 100 µM |  | > 100 µM | > 100 µM | > 100 µM | > 100 µM | > 100 µM | > 100 µM |  |  |  |  |  |  |  |  | 
4 | Cc1ncc(C(=O)Nc2ccc(CN3CCN(C)CC3)c(C(F)(F)F)c2)cc1C#Cc1ccc(N)nc1 | 0.379 µM | 4.3 µM | 1.1 µM |  | 2.6 µM | 4.16 µM |  | 7.52 µM | 4.41 µM | 4.4 µM | 0.0868 µM | 0.733 µM | 0.189 µM | 0.434 µM | 0.426 µM | 0.556 µM | 0.155 µM | 0.531 µM
5 | CCN(Cc1cc(F)ccc1F)c1ccc(CO)c(Cl)c1 | 27.2 µM | 26.9 µM | 35.6 µM |  | 20.5 µM | 0.861 µM |  | 53.8 µM | 21.6 µM | 44.3 µM | 13.3 µM | 11.8 µM | 16.1 µM | 10.4 µM | 1.35 µM | 0.238 µM | 18.1 µM | 1.54 µM
6 | NS(=O)(=O)c1ccc(N=Nc2c(O)[nH]c3ccc(C(=O)NCc4ccncc4)cc23)cc1 | > 25 µM | > 25 µM | > 25 µM |  | > 25 µM | > 25 µM |  | > 25 µM | > 25 µM | > 25 µM | > 25 µM | > 25 µM | > 25 µM | > 25 µM | > 25 µM | > 25 µM | > 25 µM | > 25 µM
7 | COc1ccc(NC(=O)/C=C(C)/C=C/C=C(C)/C=C/C2=C(C)CCCC2(C)C)cc1 | 65.4 µM | 28.7 µM | 18.5 µM |  | 34.1 µM | 5.9 µM |  | 5.96 µM | 30.7 µM | 11.9 µM | 38.9 µM | 14.4 µM | 1.98 µM | 4.5 µM | 18.2 µM | 2.64 µM | 2.34 µM | 14.9 µM
8 | [O-][N+]1(CC[N+]2([O-])CCCCC2)CCCCC1 | > 100 µM | > 100 µM | > 100 µM |  | > 100 µM | > 100 µM |  | > 100 µM | > 100 µM | > 100 µM |  |  |  |  |  |  |  | 
9 | CCn1c(-c2cc3c([nH]c4ccccc43)c(-c3cccc(O)c3)n2)n[nH]c1=S | 11.4 µM | 6.31 µM | 4.85 µM |  | 16 µM | 11.4 µM |  | 6.77 µM | 18.8 µM | 6.97 µM | 2.56 µM | 2.29 µM | 1.67 µM | 1.26 µM | 4.71 µM | 3.13 µM | 2.38 µM | 4 µM
10 | Cc1ccc2nc(-c3ccc(OCC(=O)N=Nc4c(O)[nH]c5ccccc45)cc3)[nH]c2c1 | 4.6 µM | 4.38 µM | 38.5 µM |  | 45.4 µM | 3.79 µM |  | 8.87 µM | 6.32 µM | 3.76 µM | 2.1 µM | 2.06 µM | 0.499 µM | 13 µM | 19 µM | 1.97 µM | 2.99 µM | 2.38 µM
11 | C=C1C(=O)O[C@H]2[C@H]1CC/C(COC(=O)NCc1ccc(OC)cc1)=C\CC[C@@]1(C)O[C@@H]21 | 1.29 µM | 1.67 µM | 15.3 µM |  | 24.1 µM | 1.53 µM |  | 2.31 µM | 19.2 µM | 3.84 µM | 0.554 µM | 0.7 µM | 0.656 µM | 1 µM | 7.98 µM | 0.595 µM | 0.843 µM | 4.28 µM
12 | CCCCCCCC(=O)OCCCC1[C@]2(C)CC[C@@]3(C)C([C@H](C)CCC=C(C)C)CC[C@]3(C)C2CC[C@]12OC2(C)C (some centres not stated) | > 100 µM | > 100 µM | > 100 µM |  | > 100 µM | 65.2 µM |  | 57.1 µM | > 100 µM | 45.7 µM | > 100 µM | > 100 µM | 22.6 µM | > 100 µM | > 100 µM | 24.9 µM | 22.1 µM | 32.4 µM
13 | CN1CCN(Cc2ccc(NC(=O)c3cncc(C#Cc4cnc(N)cc4C#N)c3)cc2C(F)(F)F)CC1 | 0.943 µM | 16 µM | 19.8 µM |  | 13.1 µM | 20.4 µM |  | 22.3 µM | 15.4 µM | > 100 µM | 0.264 µM | 4.38 µM | 4.21 µM | 5.92 µM | 3.33 µM | 4.88 µM | 1.86 µM | 3.89 µM
14 | O=C(/C=C/c1ccc(C(F)(F)F)cc1)Nc1ccc(C=C2c3ccccc3C(=O)c3ccccc32)cc1 | > 100 µM | > 100 µM | 39.1 µM |  | 51.9 µM | 18 µM |  | 65.1 µM | > 100 µM | 41.7 µM | 8.91 µM | 13.6 µM | 0.772 µM | 7.26 µM | 11.7 µM | 3.76 µM | 4.65 µM | 6.14 µM
15 | C[Si](C)(C)C(CCCCSc1ccccc1)(Sc1ccccc1)Sc1ccccc1 |  | > 100 µM | > 100 µM | > 100 µM |  |  |  | > 100 µM | > 100 µM | > 100 µM |  |  |  |  |  |  |  | 
16 | CC(C)c1nc(N(C)S(C)(=O)=O)nc(-c2ccc(F)cc2)c1/C=C/[C@@H](O)C[C@@H](O)CC(=O)O | > 100 µM | > 100 µM | > 77.5 µM |  | > 100 µM | > 100 µM |  | > 100 µM | > 100 µM | > 100 µM | > 100 µM | > 100 µM | 32.7 µM | 18.5 µM | > 100 µM | > 100 µM | > 100 µM | > 100 µM
17 | CN(C)CCNC(=O)c1ccc(-c2nc3ccc4[nH]ncc4c3c3c2C2CCC3C2)cc1 (configuration not stated) | 3.96 µM | 4.92 µM | 1.14 µM |  | 5.7 µM | 5.9 µM |  | 5.56 µM | 12.8 µM | 2.65 µM | 1.67 µM | 0.882 µM | 0.254 µM | 0.341 µM | 1.29 µM | 1.71 µM | 1.1 µM | 1.65 µM
